Columns and labels:
[1] = target: SOS1:KRAS (G12C) interaction (Homo sapiens (Human), UniProt Q07889); assay: SOS1-KRas(G12C) FRET Assay; format: binding; conditions: 0.5 nM His10-SOS1 (res. 564-1049), 2.5 nM GST-KRAS (res. 1-169, G12C); read-out: SOS-KRas(G12C) FRET IC50
Outline: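 Compounds were pre-incubated 15 min at 25° C with SOS1 (His10, res. 564-1049; 0.5 nM final) and anti-6His-XL665, then GST-KRAS G12C (res. 1-169; 2.5 nM final) with anti-GST-Eu(K) was added for 2 h at RT. The buffer was PBS, 0.1% BSA, 5 mM MgCl2, 100 mM KF, 5 mM DTT with 0.5% DMSO. The 665/615 nm signal was normalised to DMSO and no-SOS1 controls, and IC50 and Hill coefficient were fitted by non-linear regression.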

[2] = target: human SOS1 (Homo sapiens (Human), UniProt Q07889); assay: Surface Plasmon Resonance (SPR) SOS1 Binding Assay; conditions: biotinylated SOS1 (res. 564-1049), 25° C., kinetic or steady state fit, read-out: KD for hSOS1
Chain of human SOS1 (Q07889 564-1049): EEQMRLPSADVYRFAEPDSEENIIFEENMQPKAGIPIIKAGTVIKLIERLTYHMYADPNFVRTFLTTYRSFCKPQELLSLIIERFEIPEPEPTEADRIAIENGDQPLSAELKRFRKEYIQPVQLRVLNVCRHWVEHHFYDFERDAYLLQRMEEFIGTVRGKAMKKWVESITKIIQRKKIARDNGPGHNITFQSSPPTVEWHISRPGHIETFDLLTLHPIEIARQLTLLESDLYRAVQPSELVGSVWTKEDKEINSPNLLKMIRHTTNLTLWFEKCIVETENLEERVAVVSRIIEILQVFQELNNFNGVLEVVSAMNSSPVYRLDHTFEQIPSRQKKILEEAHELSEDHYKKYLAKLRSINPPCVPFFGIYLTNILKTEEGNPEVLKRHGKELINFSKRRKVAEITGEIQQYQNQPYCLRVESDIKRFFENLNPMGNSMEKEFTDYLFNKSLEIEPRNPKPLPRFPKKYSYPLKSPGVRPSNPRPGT
Description: Binding to SOS1 was measured using a SPR assay with purified recombinant human SOS1 substrate (res. 564-1049 with N-terminal Avi tag; purified and biotinylated based on Hillig, et al., Proc Natl Acad Sci USA (2019); 116(7):2551-2560). SPR measurements were performed on a Biacore 8K SPR instrument (GE Healthcare, Sweden). Assays were performed at 25° C. using Series S SA sensor chips pre-coated with streptavidin (GE Healthcare, Cat. BR100531). Biotinylated SOS1 diluted in sample buffer (20 mM Tris HCl, 150 mM NaCl, 1 mM DTT, 0.05% TWEEN 20, 1 mM MgCl2, pH 8.0) was captured to one flow cell of the chip to about 3,000 resonance units (RU) using sample buffer supplemented with 5% DMSO as a running buffer. Serial dilutions of the assayed compounds in the running buffer at 100, 50 or 0.5 μM were injected for 60 s at a flow rate of 30 μL/min and association phases were recorded. Dissociation of the samples was monitored for 600 s. Data processing was performed using Biacore Insight Software (Biacore, GE Healthcare). Sensorgrams recorded on a SA flow cell without captured protein were subtracted from sensorgrams recorded on the SOS1 surface. Blank injections of running buffer were used for double referencing and solvent correction was applied to all sample sensorgrams to correct for buffer mismatches. KDs were estimated using a kinetic or steady state, where applicable, fitting model describing a reversible equilibrium with 1:1 binding between SOS1 and the compound.

Chain of SOS1:KRAS (G12C) interaction (Q07889 564-1049, stated change not applied): as the sequence (Q07889 564-1049) above

| SMILES | IC50 [1] [nM] | Kd [2] [nM] |
| --- | --- | --- |
| Cc1c([C@@H](C)Nc2nn(C)c(=O)c3c(Br)c(=O)n(C4CC4)cc23)cccc1C(F)(F)F [Example 3, (R)-8-bromo-6-cyclopropyl-2-methyl-4-((1-(2-methyl-3-(trifluoromethyl)phenyl)ethyl)amino)-2,6-dihydropyrido[3,4-d]pyridazine-1,7-dione] | 345 | 63 |
| C[C@@H](Nc1nn(C)c(=O)c2cc(=O)n(C3(C(F)F)CC3)cc12)c1cccc(C(F)(F)C(C)(C)O)c1F [Example 70, (R)-4-((1-(3-(1,1-difluoro-2-hydroxy-2-methylpropyl)-2-fluorophenyl)ethyl)amino)-6-(1-(difluoromethyl)cyclopropyl)-2-methyl-2,6-dihydropyrido[3,4-d]pyridazine-1,7-dione] | 16.7 | 12 |
| C[C@@H](Nc1nn(C)c(=O)c2cc(=O)n(C3CC3)cc12)c1cccc(C(F)F)c1F [Example 17, (R)-6-cyclopropyl-4-((1-(3-(difluoromethyl)-2-fluorophenyl)ethyl)amino)-2-methyl-2,6-dihydropyrido[3,4-d]pyridazine-1,7-dione] | 248 | 31 |
| Cc1c([C@@H](C)Nc2nn(C)c(=O)c3c(N(C)C)c(=O)n(C4CC4)cc23)cccc1C(F)(F)F [Example 80, (R)-6-cyclopropyl-8-(dimethylamino)-2-methyl-4-((1-(2-methyl-3-(trifluoromethyl)phenyl)ethyl)amino)-2,6-dihydropyrido[3,4-d]pyridazine-1,7-dione] | 302 | 303 |
| Cc1c([C@@H](C)Nc2nn(C)c(=O)c3c(C#N)c(=O)n(C4CC4)cc23)cccc1C(F)(F)F [Example 10, (R)-6-cyclopropyl-2-methyl-4-((1-(2-methyl-3-(trifluoromethyl)phenyl)ethyl)amino)-1,7-dioxo-1,2,6,7-tetrahydropyrido[3,4-d]pyridazine-8-carbonitrile] | 2250 | 136 |
| COc1c(=O)n([C@H]2CCOC[C@H]2F)cc2c(N[C@H](C)c3cccc(C(F)F)c3F)nn(C)c(=O)c12 (single isomer, unassigned) [Example 59] | 1040 | 441 |
| C[C@@H](Nc1nn(C)c(=O)c2cc(=O)n(C3CC(C#N)C3)cc12)c1cccc(C(F)F)c1F (stereo partly drawn) [Example 76, (1r,3s)-3-(4-(((R)-1-(3-(difluoromethyl)-2-fluorophenyl)ethyl)amino)-2-methyl-1,7-dioxo-1,7-dihydropyrido[3,4-d]pyridazin-6(2H)-yl)cyclobutane-1-carbonitrile] | 92.8 | 37 |
| Cc1c([C@@H](C)Nc2nn(C)c(=O)c3c(OCC4CC4)c(=O)n(C4CC4)cc23)cccc1C(F)(F)F [Example 82, (R)-6-cyclopropyl-8-(cyclopropylmethoxy)-2-methyl-4-((1-(2-methyl-3-(trifluoromethyl)phenyl)ethyl)amino)-2,6-dihydropyrido[3,4-d]pyridazine-1,7-dione] | 476 | 51 |
| C[C@@H](Nc1nn(C)c(=O)c2cc(=O)n([C@@H]3CCOC(C)(C)C3)cc12)c1cccc(C(F)F)c1F (single isomer, unassigned) [Example 84] | 229 | 28 |
| C[C@@H](Nc1nn(C)c(=O)c2cc(=O)n(C3CC4(COC4)C3)cc12)c1cccc(C(F)F)c1F [Example 51, (R)-4-((1-(3-(difluoromethyl)-2-fluorophenyl)ethyl)amino)-2-methyl-6-(2-oxaspiro[3.3]heptan-6-yl)pyrido[3,4-d]pyridazine-1,7(2H,6H)-dione] | 47.3 | 17 |
| C[C@@H](Nc1nn(C)c(=O)c2cc(=O)n([C@H]3CCCOC3)cc12)c1cccc(C(F)F)c1F (single isomer, unassigned) [Example 38] | 211 | 43 |
| COc1c(=O)n(C2(C(F)F)CC2)cc2c(N[C@H](C)c3cccc(C(F)F)c3F)nn(C)c(=O)c12 [Example 73, (R)-4-((1-(3-(difluoromethyl)-2-fluorophenyl)ethyl)amino)-6-(1-(difluoromethyl)cyclopropyl)-8-methoxy-2-methyl-2,6-dihydropyrido[3,4-d]pyridazine-1,7-dione] | 60.8 | 27 |
| C[C@@H](Nc1nn(C)c(=O)c2cc(=O)n(C3(C(F)(F)F)CC3)cc12)c1cccc(C(F)F)c1F [Example 71, (R)-4-((1-(3-(difluoromethyl)-2-fluorophenyl)ethyl)amino)-2-methyl-6-(1-(trifluoromethyl)cyclopropyl)-2,6-dihydropyrido[3,4-d]pyridazine-1,7-dione] | 69.8 | 31 |
| C[C@@H](Nc1nn(C)c(=O)c2cc(=O)n(C3CC3)cc12)c1cc(Br)cs1 [Example 56, (R)-4-((1-(4-bromothiophen-2-yl)ethyl)amino)-6-cyclopropyl-2-methyl-2,6-dihydropyrido[3,4-d]pyridazine-1,7-dione] | 1930 | 530 |
| Cc1c([C@@H](C)Nc2nn(C)c(=O)c3cc(=O)n(C45CC(C4)C5)cc23)cccc1C(F)(F)F [Example 16, (R)-6-(bicyclo[1.1.1]pentan-1-yl)-2-methyl-4-((1-(2-methyl-3-(trifluoromethyl)phenyl)ethyl)amino)-2,6-dihydropyrido[3,4-d]pyridazine-1,7-dione] | 235 | 84 |
| C[C@@H](Nc1nn(C)c(=O)c2cc(=O)n([C@@H]3CCCOC3)cc12)c1cccc(C(F)F)c1F (single isomer, unassigned) [Example 39] | 160 | 43 |
| Cc1c([C@@H](C)Nc2nn(C)c(=O)c3c(N4CC[C@H](N)C4)c(=O)n(C4CC4)cc23)cccc1C(F)(F)F [Example 21, 8-((S)-3-aminopyrrolidin-1-yl)-6-cyclopropyl-2-methyl-4-(((R)-1-(2-methyl-3-(trifluoromethyl)phenyl)ethyl)amino)-2,6-dihydropyrido[3,4-d]pyridazine-1,7-dione] | 300 | 70 |
| C[C@@H](Nc1nn(C)c(=O)c2cc(=O)n(C3CCOCC3)cc12)c1cccc(C(F)(F)C(C)(C)O)c1F [Example 40, (R)-4-((1-(3-(1,1-difluoro-2-hydroxy-2-methylpropyl)-2-fluorophenyl)ethyl)amino)-2-methyl-6-(tetrahydro-2H-pyran-4-yl)-2,6-dihydropyrido[3,4-d]pyridazine-1,7-dione] | 21.1 | 9 |
| C[C@@H](Nc1nn(C)c(=O)c2cc(=O)n(C3(C#N)CC3)cc12)c1cccc(C(F)F)c1F [Example 66, (R)-1-(4-((1-(3-(difluoromethyl)-2-fluorophenyl)ethyl)amino)-2-methyl-1,7-dioxo-1,7-dihydropyrido[3,4-d]pyridazin-6(2H)-yl)cyclopropane-1-carbonitrile] | 72.5 | 26 |
| Cc1c([C@@H](C)Nc2nn(C)c(=O)c3c(N4CC[C@@H](N)C4)c(=O)n(C4CC4)cc23)cccc1C(F)(F)F [Example 20, 8-((R)-3-aminopyrrolidin-1-yl)-6-cyclopropyl-2-methyl-4-(((R)-1-(2-methyl-3-(trifluoromethyl)phenyl)ethyl)amino)-2,6-dihydropyrido[3,4-d]pyridazine-1,7-dione] | 284 | 63 |

Source: US20240279221A1, “HETEROCYCLIC COMPOUNDS AND METHODS OF USE” (Schrödinger, Inc., priority 2021, published 2024)
